This is an account of results in US11597724B2, “Herbicidally active 3-phenylisoxazoline-5-carboxamides of tetrahydro and dihydrofuran carboxylic acids and esters” (Bayer Aktiengesellschaft, priority 2017, dated 2023).

Broadly, the pest or weed control is the degree to which the test organism was suppressed or injured, in per cent. Low values mean a weak effect, high ones a strong effect.

Holding throughout (format): in vivo
Assay [1] has as its system Veronica persica. Briefly: Post-emergence herbicidal activity against VERPE. The note with it: dosage 320 g/ha; for pest or weed control at 320 g/ha: Veronica persica, 504 h. The procedure, abridged:
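Greenhouse plants treated at one-leaf stage, 2–3 weeks after sowing, by spraying WP or EC formulations with 0.5% additive at 600 l/ha water. Visual rating about 3 weeks later versus untreated controls (100% = plants dead, 0% = like controls).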

In the next assay the test system is Amaranthus retroflexus. Briefly: Pre-emergence herbicidal activity against AMARE. The note with it: dosage 80 g/ha; for pest or weed control at 80 g/ha: Amaranthus retroflexus, 504 h. The text has this:
(§1) 1. Pre-Emergence Herbicidal Action and Crop Plant Compatibility Seeds of monocotyledonous and dicotyledonous weed plants and crop plants are placed in plastic or wood fiber pots and covered with soil. The compounds of the invention, formulated in the form of wettable powders (WP) or as emulsion concentrates (EC), are then applied onto the surface of the covering soil as aqueous suspension or emulsion with addition of 0.5% additive at a water application rate of 600 l/ha (converted). After the treatment, the pots are placed in a greenhouse and kept under good growth conditions for the trial plants. After about 3 weeks, the effect of the preparations is scored visually in comparison with untreated controls as percentages. For example, 100% activity=the plants have died, 0% activity=like control plants. AMARE: Amaranthus retroflexus AVEFA: Avena fatua

For another assay, the system named is Echinochloa crus-galli. Briefly: Post-emergence herbicidal activity against ECHCG. The note with it: dosage 320 g/ha, rated about 3 weeks after treatment; for pest or weed control at 320 g/ha: Echinochloa crus-galli, 504 h. The procedure, abridged: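 Greenhouse pot plants sprayed post-emergence at one-leaf stage (2-3 weeks after sowing) with WP or EC formulations, 0.5% additive, 600 l/ha water. Visual rating about 3 weeks later versus untreated controls: 100% = plants dead, 0% = like control.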

The subject of assay [2] is Setaria viridis. Kind of assay: Post-emergence herbicidal activity against SETVI. The note with it: dosage 320 g/ha, rated about 3 weeks after treatment; for pest or weed control at 320 g/ha: Setaria viridis, 504 h. The procedure, abridged:
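Greenhouse weeds in sandy loam were sprayed at the one-leaf stage, 2–3 weeks after sowing, with WP or EC formulations plus 0.5% additive at 600 l/ha water. About 3 weeks later, damage was rated visually against untreated controls, where 100% means plants dead and 0% means like control.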

The subject of assay [3] is Setaria viridis. Briefly: Pre-emergence herbicidal activity against SETVI. The note with it: dosage 80 g/ha; for pest or weed control at 80 g/ha: Setaria viridis, 504 h.
Excerpt: as §1, with “POLCO: Polygonum convolvulus SETVI: Setaria viridis” for “AMARE: Amaranthus retroflexus AVEFA: Avena fatua”

The test system of another assay is Alopecurus myosuroides. Briefly: Pre-emergence herbicidal activity against ALOMY. The note with it: dosage 80 g/ha, scored visually after about 3 weeks vs untreated controls (100% = plants have died, 0% = like control plants); for pest or weed control at 80 g/ha: Alopecurus myosuroides, 504 h.
Excerpt: as §1, with “ABUTH: Abutilon theophrasti ALOMY: Alopecurus myosuroides” for “AMARE: Amaranthus retroflexus AVEFA: Avena fatua”

Assay [4] has as its system Veronica persica. Briefly: Pre-emergence herbicidal activity against VERPE. The note with it: dosage 80 g/ha.
Excerpt: as §1, with “STEME: Stellaria media VERPE: Veronica persica” for “AMARE: Amaranthus retroflexus AVEFA: Avena fatua”

With `CCOC(=O)[C@H]1C[C@@H](NC(=O)C2(C)CC(c3cccc(F)c3)=NO2)CO1` (mixture of isomers) [I-30, ethyl cis-4-[[(5RS)-3-(3-fluorophenyl)-5-methyl-4H-isoxazole-5-carbonyl]amino]tetrahydrofuran-2-carboxylate], the pest or weed control at 320 g/ha was found to be 80% in the assay with Veronica persica [1], 80% in the assay with Echinochloa crus-galli and 90% in the assay with Setaria viridis [2]. The pest or weed control at 80 g/ha in the assay with Amaranthus retroflexus was determined as 80%; in the assay on Setaria viridis [3] it was 100%; in the assay on Alopecurus myosuroides it was 100%.

For `CC1(C(=O)NC2COC(C(=O)O)C2)CC(c2cc(F)cc(F)c2)=NO1` (mixture of isomers) [I-41], the “Post-emergence herbicidal activity against VERPE in %” value in the assay on Veronica persica [1] is 80%. For the same compound, in the assay on Amaranthus retroflexus, the “Pre-emergence herbicidal activity against AMARE in %” value is 90%. The “Post-emergence herbicidal activity against ECHCG in %” value with Echinochloa crus-galli worked out at 100%. Further, in the assay with Setaria viridis [2], the “Post-emergence herbicidal activity against SETVI in %” value is listed as 90%. In addition, the “Pre-emergence herbicidal activity against SETVI in %” value in the assay on Setaria viridis [3] worked out at 100%. Moreover, in the assay with Alopecurus myosuroides, the “Pre-emergence herbicidal activity against ALOMY in %” value was 100%.

In the case of `CC(C)(C)OC(=O)[C@H]1C[C@@H](NC(=O)C2(C)CC(c3cccc(F)c3)=NO2)CO1` (mixture of isomers) [I-33, tert-butyl cis-4-[[(5RS)-3-(3-fluorophenyl)-5-methyl-4H-isoxazole-5-carbonyl]amino]tetrahydrofuran-2-carboxylate], the pest or weed control at 320 g/ha with Veronica persica [1] worked out at 80%; in the assay on Echinochloa crus-galli, 80%; in the assay with Setaria viridis [2] it was 90%. Moreover, the pest or weed control at 80 g/ha is 100% in the assay with Veronica persica [4] (Veronica persica, 504 h); 100% with Setaria viridis [3]; 100% in the assay on Alopecurus myosuroides.

Regarding `CC1(C(=O)N[C@H]2CO[C@@H](C(=O)OCc3ccccc3)C2)CC(c2cccc(F)c2)=NO1` (mixture of isomers) [I-34, benzyl cis-4-[[(5RS)-3-(3-fluorophenyl)-5-methyl-4H-isoxazole-5-carbonyl]amino]tetrahydrofuran-2-carboxylate], the results for the pest or weed control at 320 g/ha with Veronica persica [1], in the assay with Echinochloa crus-galli and in the assay with Setaria viridis [2] were 80%, 90% and 90%, respectively. In addition, the pest or weed control at 80 g/ha in the assay on Setaria viridis [3] was 90%; with Alopecurus myosuroides it was 100%.

For the compound `COC(=O)[C@H]1C[C@@H](NC(=O)C2(OC)CC(c3cc(F)cc(F)c3)=NO2)CO1` (relative stereo) [I-05, methyl cis-4-[[3-(3,5-difluorophenyl)-5-methoxy-4H-isoxazole-5-carbonyl]amino]tetrahydrofuran-2-carboxylate], the pest or weed control at 320 g/ha with Veronica persica [1] was 80%; with Echinochloa crus-galli it was 90%; with Setaria viridis [2], 90%. The compound further returned a pest or weed control at 80 g/ha with Setaria viridis [3] of 90%.

Turning to `COC(=O)C1CC(NC(=O)C2(C(C)(F)F)CC(c3cc(F)cc(F)c3)=NO2)CO1` (stereo not drawn) [I-49], in the assay on Veronica persica [1], the “Post-emergence herbicidal activity against VERPE in %” value came out at 80%. For the same compound, the “Pre-emergence herbicidal activity against AMARE in %” value in the assay with Amaranthus retroflexus was 100%. The “Pre-emergence herbicidal activity against VERPE in %” value in the assay with Veronica persica [4] was determined as 100%. Besides, the “Post-emergence herbicidal activity against ECHCG in %” value with Echinochloa crus-galli is recorded as 80%. In addition, the “Pre-emergence herbicidal activity against SETVI in %” value with Setaria viridis [3] came out at 100%. In addition, in the assay on Alopecurus myosuroides, the “Pre-emergence herbicidal activity against ALOMY in %” value is on record as 100%.

In the case of `CC(C)OC(=O)[C@H]1C[C@@H](NC(=O)C2(C)CC(c3cccc(F)c3)=NO2)CO1` (mixture of isomers) [I-32, isopropyl cis-4-[[(5RS)-3-(3-fluorophenyl)-5-methyl-4H-isoxazole-5-carbonyl]amino]tetrahydrofuran-2-carboxylate], the pest or weed control at 320 g/ha turned out to be 80% in the assay with Veronica persica [1], 90% in the assay on Echinochloa crus-galli and 90% with Setaria viridis [2]. Moreover, the pest or weed control at 80 g/ha was 90% in the assay on Amaranthus retroflexus, 100% in the assay with Setaria viridis [3] and 100% in the assay with Alopecurus myosuroides.
